From PMC9489722, “Identification and development of a subtype-selective allosteric AKT inhibitor suitable for clinical development” (Scientific Reports, 2022)
Where two headings read alike, the source gives them in different places.

Experiments:
AKT2 = molecular target: T1, AKT2 (Homo sapiens, UniProt P31751); test: AKT2 biochemical kinase assay (FP iMAP)
T1 construct: purchased Signal Chem
Experimental: (§1) Biochemical analysis was performed using kinases obtained from Millipore (AKT1, ∆AKT1, ∆AKT2, ∆AKT3) and Signal Chem (AKT2 and AKT3). […] (Molecular Devices) against the three isoforms of AKT and their PH domain null mutants. Compounds were dissolved in DMSO prior to screening at 14 point titration series in the range (50 µM–50 pM). Fluorescence polarisation was measured using a Biotek Synergy 4 Hybrid microplate reader. Percentage inhibition of kinase activity was calculated and IC50 values derived using non-linear regression on GraphPad Prism. Competition of ALM301 with ATP was determined using AKT1 under increasing ATP concentrations up to 1000 µM.

CYP 1A2 = CYP 1A2 (Homo sapiens, UniProt P05177); test: CYP1A2 inhibition; assay type: in vitro ADME
normal cell lines = test: In vitro proliferation assay (CellTiter-Glo), normal cell lines; assay type: cell-based; settings: normal cell lines, 72 h; read-out: anti-proliferative IC50, normal cells
Experimental: (§2) MCF-7, T47D, NCI-H460, HCT116, LNCaP, A431, PC3, PANC-1, A549, HT29M, SKOV-3, Du145, HMEC-1, Hs888Lu, Hela, MDA-MB-231 and SW480 cells were obtained from American Type Culture Collection (ATCC). A2780, PNT2, U251MG, HFFF2 and Fr2 cells were obtained from Public Health England European Collection of Authenticated Cell Cultures (Phe ECACC). InMyoFib and NHLF cells were acquired from Lonza. Cells were then incubated with increasing concentration of inhibitor (1 nM to 100 µM) for 72 h at 37 °C. Cell viability was determined using the CellTiter-Glo Luminescent Cell Viability Assay (Promega). IC50 values were derived as previously stated.

CYP 2C9 = CYP 2C9 (Homo sapiens, UniProt P11712); test: CYP2C9 inhibition; assay type: in vitro ADME
[1] = test system: panel of over 450 kinases; test: SelectScreen kinase selectivity profiling, full panel; assay type: biochemical
Experimental: (§3) Off-target kinase activity was performed using the SelectScreen kinase profiling service against either mini 50 kinase or full 450 kinase panels using the Z’lyte and Adapta kinase activity platforms (performed by Thermofisher).

CYP 2D6 = CYP 2D6 (Homo sapiens, UniProt P10635); test: CYP2D6 inhibition; assay type: in vitro ADME
AKT3 [2] = molecular target: T2, AKT3 (Homo sapiens, UniProt Q9Y243); test: AKT3 biochemical kinase assay (FP iMAP)
T2 construct: purchased Signal Chem
Experimental: as §1

p38α = p38α (Homo sapiens, UniProt Q16539); test: SelectScreen kinase selectivity profiling, p38α; assay type: biochemical
Experimental: as §3

∆AKT2 = test: PH domain null AKT2 biochemical kinase assay (FP iMAP)
Experimental: Biochemical analysis was performed using kinases obtained from Millipore (AKT1, ∆AKT1, ∆AKT2, ∆AKT3) and Signal Chem (AKT2 and AKT3). The specific activity of AKT 1,2 and 3 was determined to be 114 nmol/min/mg, 44 nmol/min/mg and 200 nmol/min/mg respectively as per activity assay protocol. ALM301 was profiled using the Fluorescent Polarisation (FP) iMAP Screening Express kit (Molecular Devices) using the FAM-Crosstide substrate [5FAM-[…]-OH] (Molecular Devices) against the three isoforms of AKT and their PH domain null mutants. Compounds were dissolved in DMSO prior to screening at 14 point titration series in the range (50 µM–50 pM). Fluorescence polarisation was measured using a Biotek Synergy 4 Hybrid microplate reader. Percentage inhibition of kinase activity was calculated and IC50 values derived using non-linear regression on GraphPad Prism. Competition of ALM301 with ATP was determined using AKT1 under increasing ATP concentrations up to 1000 µM.

CYP 2C19 = CYP 2C19 (Homo sapiens, UniProt P33261); test: CYP2C19 inhibition; assay type: in vitro ADME
Kinetic solubility assay = assay type: physicochemical; settings: PBS buffer, pH 7.4, aqueous buffer, kinetic from dmso stock, PBS pH 7.4; read-out: Kinetic solubility pH7.4
Experimental: Compound solubility was tested in Dulbecco A PBS buffer at pH7.4 in Millipore MultiScreen Solubility Filter plates. Analysis was carried out on a Bioteck Synergy 4 plate reader (240–400 nm) and solubility quantified against a 5-point calibration curve.

AKT3 [3] = molecular target: T2, AKT3; test: SelectScreen kinase selectivity profiling, AKT3; assay type: biochemical; settings: read-out: % inhibition @ 10 µM, AKT3; 10 µM fixed concentration
Experimental: as §3

AKT1 = molecular target: T3, AKT1 (Homo sapiens, UniProt P31749); test: SelectScreen kinase selectivity profiling, AKT1; assay type: biochemical; settings: read-out: % inhibition @ 10 µM, AKT1; 10 µM fixed concentration
T3 construct: purchased Millipore
Experimental: as §3

A549 cells = test: In vitro proliferation assay (CellTiter-Glo), A549; assay type: cell-based; settings: Homo sapiens; A549 cell line
Experimental: as §2

CYP3A4 = CYP3A4 (Homo sapiens, UniProt P08684); test: CYP3A4 inhibition; assay type: in vitro ADME; settings: read-out: CYP IC50, 3A4
LogD7.4 assay = assay type: physicochemical; settings: octanol/PBS buffer; octanol/PBS pH 7.4
Experimental: Compounds (100 µM) were shaken at 300 rpm at room temperature for 4 h in a biphasic system of octanol and PBS buffer pH 7.4 in a 96-well plate in triplicate. The relative drug concentration in each phase was then determined by the peak area measurement from LC-UV analysis on an Agilent 1260 chromatography instrument (UV detection at 254 nm and 220 nm). LogD is calculated as follows: LogD = Log[peak area of compound in octanol x injection volume of buffer phase/peak area of compound in buffer x injection volume of octanol phase].

T2 sequence (Q9Y243 whole entry): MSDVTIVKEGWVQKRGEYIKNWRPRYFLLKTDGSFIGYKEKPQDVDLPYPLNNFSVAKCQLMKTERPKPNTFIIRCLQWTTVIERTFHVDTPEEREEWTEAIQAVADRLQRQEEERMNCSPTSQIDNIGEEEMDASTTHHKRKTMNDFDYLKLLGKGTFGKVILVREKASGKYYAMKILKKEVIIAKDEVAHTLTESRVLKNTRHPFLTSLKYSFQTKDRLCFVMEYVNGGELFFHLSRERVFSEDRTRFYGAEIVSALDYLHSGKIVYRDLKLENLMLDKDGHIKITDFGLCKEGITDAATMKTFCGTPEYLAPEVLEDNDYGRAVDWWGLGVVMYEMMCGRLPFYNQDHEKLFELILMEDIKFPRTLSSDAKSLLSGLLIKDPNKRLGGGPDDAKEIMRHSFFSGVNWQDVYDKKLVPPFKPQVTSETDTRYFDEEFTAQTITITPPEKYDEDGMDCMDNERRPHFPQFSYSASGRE
T1 sequence (P31751 whole entry): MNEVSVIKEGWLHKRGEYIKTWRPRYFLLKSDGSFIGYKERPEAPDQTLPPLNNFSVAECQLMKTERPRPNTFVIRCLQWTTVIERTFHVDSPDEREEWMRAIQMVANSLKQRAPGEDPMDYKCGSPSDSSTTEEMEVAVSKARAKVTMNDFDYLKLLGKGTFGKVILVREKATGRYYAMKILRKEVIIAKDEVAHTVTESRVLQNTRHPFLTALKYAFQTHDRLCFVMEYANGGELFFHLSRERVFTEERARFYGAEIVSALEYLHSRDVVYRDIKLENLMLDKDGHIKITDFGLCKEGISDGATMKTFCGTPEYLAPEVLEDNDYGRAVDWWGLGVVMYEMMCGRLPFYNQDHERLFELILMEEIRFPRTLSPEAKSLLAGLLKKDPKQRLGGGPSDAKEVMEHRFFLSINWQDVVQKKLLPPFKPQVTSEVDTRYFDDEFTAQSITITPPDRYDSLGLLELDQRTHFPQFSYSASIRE
Sequence of p38α (Q16539 whole entry): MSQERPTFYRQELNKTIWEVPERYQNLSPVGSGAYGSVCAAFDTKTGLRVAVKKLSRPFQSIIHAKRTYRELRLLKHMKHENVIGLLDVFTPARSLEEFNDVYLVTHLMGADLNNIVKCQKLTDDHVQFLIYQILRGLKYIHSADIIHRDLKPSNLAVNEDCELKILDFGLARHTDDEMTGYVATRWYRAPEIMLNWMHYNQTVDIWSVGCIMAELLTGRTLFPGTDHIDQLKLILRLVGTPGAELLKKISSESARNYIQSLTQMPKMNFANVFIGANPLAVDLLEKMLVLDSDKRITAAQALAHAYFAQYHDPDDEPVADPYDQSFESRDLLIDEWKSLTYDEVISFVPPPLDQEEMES
Sequence of CYP3A4 (P08684 whole entry): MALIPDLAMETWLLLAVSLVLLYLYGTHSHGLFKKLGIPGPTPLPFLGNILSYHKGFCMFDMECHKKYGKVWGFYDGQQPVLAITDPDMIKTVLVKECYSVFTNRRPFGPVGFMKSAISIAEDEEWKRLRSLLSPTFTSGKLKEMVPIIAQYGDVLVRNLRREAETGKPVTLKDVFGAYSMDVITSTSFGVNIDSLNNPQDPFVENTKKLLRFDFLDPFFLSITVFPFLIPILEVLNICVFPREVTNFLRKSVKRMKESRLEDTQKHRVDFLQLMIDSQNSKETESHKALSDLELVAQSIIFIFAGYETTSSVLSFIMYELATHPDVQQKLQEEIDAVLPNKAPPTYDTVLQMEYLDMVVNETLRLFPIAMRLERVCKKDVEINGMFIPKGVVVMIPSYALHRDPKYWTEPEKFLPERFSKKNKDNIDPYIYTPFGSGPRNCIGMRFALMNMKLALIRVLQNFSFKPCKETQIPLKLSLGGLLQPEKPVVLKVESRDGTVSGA
Sequence of CYP 1A2 (P05177 whole entry): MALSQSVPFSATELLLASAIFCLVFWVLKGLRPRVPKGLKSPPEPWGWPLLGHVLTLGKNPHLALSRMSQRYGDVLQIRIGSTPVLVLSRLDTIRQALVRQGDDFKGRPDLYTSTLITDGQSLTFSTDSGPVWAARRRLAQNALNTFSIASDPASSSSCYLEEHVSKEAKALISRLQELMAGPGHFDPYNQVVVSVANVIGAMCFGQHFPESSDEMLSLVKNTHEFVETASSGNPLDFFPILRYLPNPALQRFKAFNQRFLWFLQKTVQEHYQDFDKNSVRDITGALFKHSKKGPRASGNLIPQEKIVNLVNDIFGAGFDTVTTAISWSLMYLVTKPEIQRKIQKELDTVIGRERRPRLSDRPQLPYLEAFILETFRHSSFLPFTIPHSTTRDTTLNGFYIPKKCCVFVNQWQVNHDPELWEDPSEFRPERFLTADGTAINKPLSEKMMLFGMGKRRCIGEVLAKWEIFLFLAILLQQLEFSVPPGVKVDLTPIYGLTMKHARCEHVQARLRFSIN
T3 sequence (P31749 whole entry): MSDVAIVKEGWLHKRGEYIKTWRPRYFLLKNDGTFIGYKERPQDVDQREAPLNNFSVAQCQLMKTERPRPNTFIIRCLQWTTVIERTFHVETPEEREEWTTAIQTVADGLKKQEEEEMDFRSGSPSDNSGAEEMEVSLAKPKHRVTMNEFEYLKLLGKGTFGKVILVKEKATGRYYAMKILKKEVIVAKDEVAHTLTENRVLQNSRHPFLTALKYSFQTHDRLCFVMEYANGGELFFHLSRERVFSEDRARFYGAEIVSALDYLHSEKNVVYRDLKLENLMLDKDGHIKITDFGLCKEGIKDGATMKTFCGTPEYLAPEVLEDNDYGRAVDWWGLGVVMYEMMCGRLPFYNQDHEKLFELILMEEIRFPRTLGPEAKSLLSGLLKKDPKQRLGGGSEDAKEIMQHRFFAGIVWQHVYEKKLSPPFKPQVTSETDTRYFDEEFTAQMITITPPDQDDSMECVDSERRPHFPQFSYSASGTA
Sequence of CYP 2C9 (P11712 whole entry): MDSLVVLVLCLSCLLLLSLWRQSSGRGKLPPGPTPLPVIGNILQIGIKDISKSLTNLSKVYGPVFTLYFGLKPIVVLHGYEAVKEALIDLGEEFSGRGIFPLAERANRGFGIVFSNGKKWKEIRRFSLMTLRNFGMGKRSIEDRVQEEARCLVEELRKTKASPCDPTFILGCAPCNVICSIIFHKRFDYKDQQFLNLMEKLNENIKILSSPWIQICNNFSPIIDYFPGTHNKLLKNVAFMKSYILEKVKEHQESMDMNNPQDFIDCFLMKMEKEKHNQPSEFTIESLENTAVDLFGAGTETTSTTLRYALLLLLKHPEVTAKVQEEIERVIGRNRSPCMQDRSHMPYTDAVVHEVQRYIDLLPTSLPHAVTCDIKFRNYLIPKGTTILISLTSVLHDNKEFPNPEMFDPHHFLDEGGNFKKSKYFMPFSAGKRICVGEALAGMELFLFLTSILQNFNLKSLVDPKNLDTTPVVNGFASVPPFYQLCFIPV
Sequence of CYP 2C19 (P33261 whole entry): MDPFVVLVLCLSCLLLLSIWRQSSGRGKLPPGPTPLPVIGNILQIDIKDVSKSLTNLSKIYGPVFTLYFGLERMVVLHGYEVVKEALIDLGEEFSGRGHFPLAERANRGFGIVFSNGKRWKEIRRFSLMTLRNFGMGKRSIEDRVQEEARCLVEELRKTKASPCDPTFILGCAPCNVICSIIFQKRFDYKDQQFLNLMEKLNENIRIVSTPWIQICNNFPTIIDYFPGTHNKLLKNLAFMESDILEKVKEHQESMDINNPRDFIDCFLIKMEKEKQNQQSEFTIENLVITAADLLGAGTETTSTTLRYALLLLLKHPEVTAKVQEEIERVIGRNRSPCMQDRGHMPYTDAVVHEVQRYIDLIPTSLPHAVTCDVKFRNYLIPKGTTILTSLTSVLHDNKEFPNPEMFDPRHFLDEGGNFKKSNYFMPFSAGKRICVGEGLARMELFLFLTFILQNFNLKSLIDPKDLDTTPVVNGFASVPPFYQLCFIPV
Sequence of CYP 2D6 (P10635 whole entry): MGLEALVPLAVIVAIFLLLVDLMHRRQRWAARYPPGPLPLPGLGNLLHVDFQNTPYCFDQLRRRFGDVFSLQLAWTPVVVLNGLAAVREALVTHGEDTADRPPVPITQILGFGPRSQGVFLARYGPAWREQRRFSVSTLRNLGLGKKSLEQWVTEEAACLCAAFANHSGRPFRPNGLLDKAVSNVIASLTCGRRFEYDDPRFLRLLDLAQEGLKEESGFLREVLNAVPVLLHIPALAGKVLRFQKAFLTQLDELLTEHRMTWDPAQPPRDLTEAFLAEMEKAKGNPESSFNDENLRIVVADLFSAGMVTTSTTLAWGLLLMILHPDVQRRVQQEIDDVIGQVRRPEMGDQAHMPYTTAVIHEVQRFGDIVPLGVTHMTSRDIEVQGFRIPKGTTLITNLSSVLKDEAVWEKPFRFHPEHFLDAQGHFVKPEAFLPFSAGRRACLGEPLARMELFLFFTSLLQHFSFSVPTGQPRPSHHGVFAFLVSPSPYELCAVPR

CCN1C(=O)COc2nc(-c3ccc([C@]4(N)C[C@@H](O)C4)cc3)c(-c3ccccc3)cc21 [ALM301, 6-(4-((1S,3S)-1-amino-3-hydroxycyclobutyl)phenyl)-1-ethyl-7-phenyl-1H-pyrido[2,3-b][1,4]oxazin-2(3H)-one]
IC50 (AKT2; full length AKT2, read-out: IC50 full length AKT2): 0.095 µM
IC50 (AKT2; read-out: AKT IC50, AKT2): 0.09 µM
IC50 (CYP 1A2): > 25 µM
IC50 (normal cell lines): > 20 µM
IC50 (CYP 2C9): > 25 µM
inhibition versus the additional 21 PH domain containing kinases ([1]; 21 PH domain containing kinases assayed): did not demonstrate any inhibition
selectivity against a panel of over 450 kinases ([1]; fixed concentration of 10 µM): highly selective
IC50 (CYP 2D6): > 25 µM
potency versus AKT3 reduced relative to AKT1 and AKT2 (AKT3 [2]; in vitro kinase assays): over 20 fold
IC50 (AKT3 [2]; read-out: AKT IC50, AKT3): 2.75 µM
IC50 (AKT3 [2]; read-out: IC50 AKT3): > 0.5 µM
IC50 (p38α; 10-point titration curve): > 10 µM
inhibition at 10 µM (p38α; read-out: % inhibition @ 10 µM, p38α, 10 µM fixed concentration): 84%
inhibition of truncated AKT2 lacking PH domain (∆AKT2): not inhibited
IC50 (CYP 2C19): > 25 µM
solubility kinetic (Kinetic solubility assay): 192 µM
inhibition at 10 µM (AKT3 [3]): 72%
inhibition at 10 µM (AKT1): 95%
IC50 (A549 cells): 43 µM
IC50 (CYP3A4): > 25 µM
logD at 4 h (LogD7.4 assay): 1.2
